Consider 71 compounds from PubChem BioAssay AID449762 (Southern Research Specialized Biocontainment Screening …, 2010).

Each structure is given as a SMILES string. Results filed as inconclusive are left out. Bounds are passed on as bounds.

The subject of the assay is M. tuberculosis H37Rv growth inhibition, 7H9 media. The assay is described as follows: M. tuberculosis growth inhibition, HTS (AID 449762).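 For all read-outs here: bacterial growth assessed after seven days of incubation.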 The following applies: for IC90: measured here: IC90 growth inhibition.

The IC50 is the concentration that gives 50% inhibition. As a reminder, the IC90 is the point of the concentration-response curve where the effect stands at 90%. A low value points to an effect from little substance. As for `O=C([O-])c1ccccc1-[n+]1c(-c2ccccc2)cc(-c2ccccc2)cc1-c1ccccc1`, the IC50 was 15.3 µM and the IC90 turned out to be 20.5 µM.
On to `C/C(CC(=O)Nc1ccc(C)c(Cl)c1)=N\NC(=O)Cc1cnc(N)s1`, for which the IC90 is over 100 µM.
For `O=C(Nc1cc(C(F)(F)F)ccc1-n1cncn1)c1ccc([N+](=O)[O-])o1`, the IC50 was 9.55 µM and the IC90 is 32.5 µM.
As for `O=C1C(=O)N(c2ccccc2)c2ccccc21`, the IC50 is 8.23 µM and the IC90 was found to be 17.7 µM.
For `CCCn1c(CC)nc([N+](=O)[O-])c1S(=O)(=O)c1ccccc1` the same measures were 7.8 µM and 22.6 µM.
Regarding `CCOC(=O)Cn1c(-c2ccccc2)ccc(C#N)c1=O`, the IC50 was 4.51 µM and the IC90 is over 100 µM.
The like results for `CC(NC(=O)c1ccccc1Br)C1CC2CCC1C2` (stereo unspecified) were, in that order, 21 µM and over 100 µM.
For `COC(=O)c1ccc(CSc2nc(C(F)(F)F)c3c(c2C#N)CCC3)o1` the same measures were 47.1 µM and over 100 µM.
For the compound `O=C(NCCC1=CCCCC1)c1c(O)nc2sccn2c1=O`, the IC50 was 72.8 µM and the IC90 is over 100 µM.
For `CCCCCCCCn1sccc1=O` the same measures were 1.29 µM and 2.12 µM.
For `CCc1nc2ccccc2c(C(=O)Nc2cc(C)ccc2C)c1C` the same measures were 13 µM and over 100 µM.
The like results for `CCCC[C@@H](CN[C@H](C)CNC)NCC1CCC(C(C)(C)C)CC1` (stereo partly specified) were, in that order, 18 µM and 22.7 µM.
Regarding `CC1CCCC/C1=N\NC(=S)NCCc1ccccc1` (stereo unspecified), the IC50 is 21.9 µM and the IC90 stood at 24.6 µM.
For `CC1CCCC(NC(=O)NC(=O)CCl)C1C` (stereo unspecified) the same measures were 3.25 µM and 7.38 µM.
The like results for `COC(=O)CSc1nnc([C@H](CC(C)C)NC(=O)OC(C)(C)C)o1` were, in that order, 14.5 µM and 32.9 µM.
On to `Nc1nnnn1/N=C/C(Br)=C/c1ccccc1`, for which the IC50 is 1.08 µM and the IC90 was 8.66 µM.
The like results for `O=C(c1cccc([N+](=O)[O-])c1)N1CCN(c2ccc(N3CCOCC3)nn2)CC1` were, in that order, 19.7 µM and 26.6 µM.
The like results for `Cc1c(C(=O)Oc2cccc3ccccc23)cnn1-c1ccccc1` were, in that order, 23.7 µM and 26.9 µM.
As for `S=C(NCc1ccc(Cl)cc1)NC12CC3CC(CC(C3)C1)C2`, the IC50 is 0.7 µM and the IC90 was 11.6 µM.
For `Cc1cc(OCc2cc(C(=O)N(C)CCc3cnn(C)c3)no2)cc(C)c1Cl` the same measures were 26.9 µM and 51.4 µM.
The like results for `COc1ccc(-c2csc3ncnc(N4CCN(c5ccccc5OC)CC4)c23)cc1` were, in that order, 23.1 µM and 26.2 µM.
The like results for `C#CCOCCOCCOCCNc1nc(N2CCN(C(=O)C(Cc3ccc(O)cc3)n3cc(C(N)CC(C)C)nn3)CC2)nc(N2CCN(C(=O)C(Cc3cc4ccccc4[nH]3)n3cc(C(N)Cc4ccc(O)cc4)nn3)CC2)n1` (stereo unspecified) were, in that order, 6.03 µM and 6.93 µM.
For `C(C#CCCCCCCCCC[n+]1ccccc1)#CCCCCCCCCC[n+]1ccccc1`, the IC50 was 2.8 µM and the IC90 is 4.43 µM.
The like results for `C1=C(c2c[nH]c3ccccc23)CCNC1` were, in that order, 32.4 µM and 39.8 µM.
The like results for `COCCN(C(=O)C1CC(=O)N(Cc2ccccc2)C1)c1nc(-c2ccc([N+](=O)[O-])cc2)cs1` (stereo unspecified) were, in that order, 24.5 µM and 25.4 µM.
For `C/C(=N\NC(=O)CC(C)C)c1c(C(F)(F)F)[nH]n(-c2nc3ccccc3s2)c1=O` the same measures were 42.4 µM and over 100 µM.
As for `O=C(CCn1c(=O)c2cccn2c2cccnc21)N1CCN(c2cccc(Cl)c2)CC1`, the IC50 was 30.6 µM and the IC90 was found to be 41.8 µM.
The like results for `CCCCCC(=O)NNC(=S)NC(=O)c1ccc([N+](=O)[O-])cc1` were, in that order, 1.35 µM and 4.43 µM.
For `CC(C)c1nc2scc(-c3ccc(Cl)cc3)c2c(=O)n1N` the same measures were 81.8 µM and over 100 µM.
The like results for `COC(=O)c1ccc(C(=O)OC)c(NC(=O)CSc2cccc[n+]2[O-])c1` were, in that order, 2.97 µM and 3.37 µM.
In the case of `CCCCC(O)(CCCC)C(=O)NN(C(=O)CCl)c1ccccc1`, the IC50 was 3.9 µM and the IC90 worked out at 10.5 µM.
The like results for `CCCCSCCCNC(=O)c1cn(CC)c2ccc(S(=O)(=O)N3CCOCC3)cc2c1=O` were, in that order, 23.7 µM and 44.9 µM.
`CC1(C)Cc2ccccc2C2=NNC(=O)C2=N1`: the IC50 was 11.2 µM and the IC90 worked out at 21 µM.
The like results for `O=c1[nH][nH]c(-c2ccccc2O)c1C(C[N+](=O)[O-])c1cccc(Cl)c1` (stereo unspecified) were, in that order, 74.6 µM and over 100 µM.
For `COc1ccccc1NC(=O)C(C)OC(=O)/C=C/c1ccc2ccccc2n1` (stereo unspecified) the same measures were 3.82 µM and 11.4 µM.
The like results for `COc1ccc(NC(C)C(=O)Nc2ccc(C(C)(C)C)cc2)cc1Cl` (stereo unspecified) were, in that order, 86.1 µM and over 100 µM.
`Cc1ccc(C(=O)n2c(N)nc3ccccc32)cc1`: the IC50 is 43.8 µM and the IC90 was over 100 µM.
The like results for `Cn1cc(C(=O)c2ccc(Cl)cc2)cc1-c1nc2ccccc2n1C` were, in that order, 13.4 µM and 27.1 µM.
Regarding `CCOC(=O)c1ccc(NC2=CC(=O)C(=O)c3ccccc32)cc1`, the IC50 is 31.7 µM and the IC90 came to 39.7 µM.
With `Fc1ccc(C[n+]2c(-c3ccccc3)cc(-c3ccccc3)cc2-c2ccccc2)cc1`, the IC50 is 32.3 µM and the IC90 worked out at 44.3 µM.
For `O=C1N[C@@H](Cc2ccccc2)C(=O)N2[C@H]3Nc4ccccc4[C@@]3([C@]34C[C@H]5C(=O)N[C@@H](Cc6ccccc6)C(=O)N5[C@H]3Nc3ccccc34)C[C@@H]12` the same measures were 79.1 µM and over 100 µM.
For `Cn1cnnc1SCc1ccc(-c2ccc(Br)cc2)o1` the same measures were 85.1 µM and over 100 µM.
For `Cc1cc(C)c(C(N)=O)c(SCC(=O)c2ccc(Cl)cc2)n1` the same measures were 35.3 µM and 63.1 µM.
Take `CCN1CSC(=S)N(Cc2ccccc2)C1`: the IC50 was 10.5 µM and the IC90 is 24.1 µM.
The like results for `CCCCCCN=C1CC(C)(C)CC(=O)/C1=C(/O)CCC` were, in that order, 43 µM and over 100 µM.
The like results for `CSc1nc2nc3c(c(=O)n2[nH]1)CCCC3` were, in that order, 20.5 µM and over 100 µM.
For `CN(CC(=O)Nc1ccccc1Br)C(=O)c1cccnc1Nc1cccc(C(F)(F)F)c1` the same measures were 32 µM and 40.7 µM.
`CCOc1ccc(N2C=Nc3ccc(OCC)cc3C2)cc1`: the IC50 is 44 µM and the IC90 is 89.4 µM.
Turning to `Cc1ccc(C)c(-c2nn(-c3cc(N4CCN(CCO)CC4)ccc3[N+](=O)[O-])c(=O)c3ccccc23)c1`, the IC50 is 12.7 µM and the IC90 stood at 28.7 µM.
On to `Cc1cc(C)n(-c2nc(Nc3ccccc3C(F)(F)F)nc(-n3nc(C)cc3C)n2)n1`, for which the IC50 is 0.65 µM and the concentration for an effect of 90% (IC90) was found to be 1.56 µM.
As for `Cc1ccc(C)c(N/C(N)=N/c2nc(C)cc(C)n2)c1`, the IC50 was 5.87 µM and the IC90 was 6.72 µM.
For `Cc1ccn2nc(S(=O)(=O)Nc3c(F)cccc3F)nc2n1` the same measures were 6.95 µM and 9.3 µM.
For `Cc1ccc(-c2noc(=O)n2CC(=O)c2ccc(Cl)cc2)cc1` the same measures were 44.3 µM and over 100 µM.
The like results for `COc1ccc(C=C2C=C(C(C)(C)C)C(=O)C(C(C)(C)C)=C2)cc1OC` were, in that order, 2.94 µM and 5.15 µM.
As for `CC1CCN(C(=S)NC(=O)c2cccs2)CC1`, the IC50 is 12.8 µM and the IC90 was found to be 29 µM.
The like results for `CCCn1c(=N)n(CC(=O)c2ccc(OCC(=O)OC)cc2)c2ccccc21` were, in that order, 11.1 µM and 43.6 µM.
The like results for `CNC[C@@H](Cc1ccccc1)NC[C@@H](CC1CCCCC1)NCCCc1ccccc1` were, in that order, 7.96 µM and 9.49 µM.
For `C=CCN(CC=C)C(=S)NC(=O)c1ccc(-c2ccccc2)cc1` the same measures were 10.8 µM and 14.1 µM.
`O=C(c1cc2nc(-c3ccc(F)cc3)cc(C(F)(F)F)n2n1)N1CCCCC1c1cccnc1` (stereo unspecified): the IC50 was 14 µM and the IC90 worked out at 31.4 µM.
For `Cc1sc2ncnc(N3CCC(C(=O)NCC(=O)Nc4ccc(F)c(F)c4)CC3)c2c1C` the same measures were 37.9 µM and 50 µM.
The like results for `Cc1ccc(F)cc1CNC(=O)c1cc(COc2ccc3ncccc3c2)on1` were, in that order, 29.2 µM and over 100 µM.
Consider `Cc1cc(C(=O)CCl)c(C)n1CCc1ccc(Cl)cc1`, for which the IC50 was 0.34 µM and the IC90 was determined as 2.18 µM.
The like results for `Cc1ccc(C2(c3ccc(C)cc3)CC2C(=O)Nc2ccc([N+](=O)[O-])cc2O)cc1` (stereo unspecified) were, in that order, 19.7 µM and 27.1 µM.
The like results for `COc1cc(NC(C)CCCN)c2ncccc2c1` (stereo unspecified) were, in that order, 9.14 µM and 13.9 µM.
For `O=[N+]([O-])c1ccc(CN2CCN(c3ccc(Cl)cc3)CC2)o1` the same measures were under 0.2 µM and under 0.2 µM.
For `c1ccc(-c2nc3nonc3nc2-c2ccccc2)cc1`, the IC50 is 33.5 µM and the IC90 was 43.9 µM.
For `CCCCN(C)CCNC(=O)c1ccc(Cn2c(=S)[nH]c3ccc(Br)cc3c2=O)cc1` the same measures were 12.2 µM and 20 µM.
For `CC(Oc1ccc(F)cc1)C(=O)Nc1sc2c(c1C(=O)NCc1cccnc1)CCCC2` (stereo unspecified) the same measures were 45 µM and 52.5 µM.
`CCOC(=O)c1nnc(-c2ccccc2)nc1NCc1ccccc1`: the IC50 is 14.6 µM and the IC90 is over 100 µM.
The like results for `O=[N+]([O-])c1cc(-c2nc(-c3ccncc3)no2)cc([N+](=O)[O-])c1` were, in that order, 3.64 µM and 11.4 µM.
The like results for `Cn1nc(-c2ccc(N3CCCCC3)c(NC(=O)c3ccco3)c2)c2ccccc2c1=O` were, in that order, 2.32 µM and 16.1 µM.
